# Patent publication US9187492B2, “Pyripyropene derivative having ACAT2 inhibiting activity and stable to metabolizing enzymes” (School Juridical Person Kitasato Institute, priority 2010, dated 2015)
# Read-outs that look alike come from different tables or passages of the source.
# Legend:
# [1] = Stability against metabolizing enzymes in the liver (hepatic microsome); conditions: time until remaining amount reached 50%, 37° C.; for half-life at 6 μg/mL: female, Sprague-Dawley (SD), rat, liver microsomes, pH 7.4, Half-life; for Half-life: female SD rat hepatic microsome, 6 μg/mL, pH 7.4
# ACAT2 = target: T1, ACAT2 (Mus musculus, UniProt O88908); experiment: Measurement of ACAT2-inhibiting activity (murine hepatic microsome, [14C]cholesteryl oleate formation); assay type: biochemical
# T1 construct: The resulting sediment was collected as a microsome fraction; from tissue; host or cells: mouse liver (hepatic microsome membrane fraction)
# T1 sequence (O88908 1-525): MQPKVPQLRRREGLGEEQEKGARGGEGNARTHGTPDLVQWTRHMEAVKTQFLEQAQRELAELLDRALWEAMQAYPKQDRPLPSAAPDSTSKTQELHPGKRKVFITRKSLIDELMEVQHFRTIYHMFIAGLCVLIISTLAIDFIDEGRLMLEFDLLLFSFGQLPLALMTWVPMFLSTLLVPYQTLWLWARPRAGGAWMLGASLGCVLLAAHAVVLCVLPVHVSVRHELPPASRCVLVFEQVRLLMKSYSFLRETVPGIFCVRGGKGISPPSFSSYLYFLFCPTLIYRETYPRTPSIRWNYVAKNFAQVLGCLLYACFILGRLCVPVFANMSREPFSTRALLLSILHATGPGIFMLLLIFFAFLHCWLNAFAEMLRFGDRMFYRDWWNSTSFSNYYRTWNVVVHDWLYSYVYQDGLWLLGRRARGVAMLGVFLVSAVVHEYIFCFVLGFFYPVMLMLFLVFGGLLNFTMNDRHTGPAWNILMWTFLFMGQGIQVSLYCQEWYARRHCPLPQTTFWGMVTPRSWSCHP
# Experimental: The enzyme source which was used was a membrane fraction derived from murine hepatic microsome. Mouse livers were homogenized in buffer solution A (50 mM Tris HCl solution (pH 7.8), 1 mM ethylene diamine tetraacetate, and 1 mM phenylmethanesulfonyl fluoride) using a Potter-type homogenizer (Tokyo-Riko). The homogenate was centrifuged at 12000×g, and the supernatant was subjected to ultracentrifugation at 100000×g. The resulting sediment was collected as a microsome fraction, and this fraction was adjusted so as to have a protein concentration of 5 mg/mL using buffer solution A.
# As a control, 10 μL of methanol were used in place of the pyripyropene derivative.
# The chloroform layer was evaporated to dryness and was used to spot a thin layer chromatography plate (silica gel plate, Merck, 0.5 mm thickness). Elution for separation was carried out using hexane/diethyl ether/acetic acid (70:30:1, v/v) as an eluant.
# wherein the background is the radioactivity of a thin layer chromatography plate which was not spotted.
# [2] = read-out: Inhibitory activity (concentration required for 50% inhibition of ACAT 2 = IC50); murine hepatic microsome membrane fraction, 5 min at 37° C.
# [3] = relative to PRD 043; class symbols
# [4] = murine hepatic microsome membrane fraction, 5 min at 37° C.; read-out: Inhibitory activity (concentration required for 50% inhibition of ACAT 2 = IC50)
Structure (SMILES),half-life at 6 μg/mL [1],Half-life [1],IC50 (ACAT2; [2]),Specific activity ((IC50 of the test compound)/(IC50 of PRD 043)) (ACAT2; relative to PRD 043; given as number),Specific activity ((IC50 of the test compound)/(IC50 of PRD 043)) (ACAT2; [3]),IC50 (ACAT2; [4])
"CC(=O)OCC1(C)C2C[C@H](OC(=O)c3ccccc3C)[C@@]3(C)Oc4cc(-c5cccnc5)oc(=O)c4[C@H](O)C3[C@@]2(C)CC[C@@H]1OC(C)=O (stereo partly shown) [PRD007, reference compound]",1 h,<1 h,,,,
"CC(=O)OCC1(C)C2C[C@H](OC(=O)c3ccc(C)cc3)[C@@]3(C)Oc4cc(-c5cccnc5)oc(=O)c4[C@H](O)C3[C@@]2(C)CC[C@@H]1OC(C)=O (stereo partly shown) [PRD009, reference compound]",1 h,<1 h,,,,
"CC(=O)OCC1(C)C2C[C@H](OC(=O)C3CCCCC3)[C@@]3(C)Oc4cc(-c5cccnc5)oc(=O)c4[C@H](O)C3[C@@]2(C)CC[C@@H]1OC(C)=O (stereo partly shown) [PRD021, reference compound]",1 h,<1 h,,,,
"CCc1ccc(C(=O)O[C@H]2CC3C(C)(COC(C)=O)[C@@H](OC(C)=O)CC[C@]3(C)C3[C@@H](O)c4c(cc(-c5cccnc5)oc4=O)O[C@@]32C)cc1 (stereo partly shown) [PRD024, reference compound]",1 h,<1 h,,,,
"CC(=O)OCC1(C)C2C[C@H](OC(=O)c3cccc(Br)c3)[C@@]3(C)Oc4cc(-c5cccnc5)oc(=O)c4[C@H](O)C3[C@@]2(C)CC[C@@H]1OC(C)=O (stereo partly shown) [PRD025, reference compound]",1 h,<1 h,,,,
"CC(=O)OCC1(C)C2C[C@H](OC(=O)c3ccccc3F)[C@@]3(C)Oc4cc(-c5cccnc5)oc(=O)c4[C@H](O)C3[C@@]2(C)CC[C@@H]1OC(C)=O (stereo partly shown) [PRD026, reference compound]",1 h,<1 h,,,,
"COc1cccc(C(=O)O[C@H]2CC3C(C)(COC(C)=O)[C@@H](OC(C)=O)CC[C@]3(C)C3[C@@H](O)c4c(cc(-c5cccnc5)oc4=O)O[C@@]32C)c1 (stereo partly shown) [PRD043, reference compound]",≥ 9 h,>9 h,> 10 nM,1,,
"CC(C)C(=O)OCC1(C)C2C[C@H](OC(=O)c3ccc(C#N)cc3)[C@@]3(C)Oc4cc(-c5cccnc5)oc(=O)c4[C@H](O)C3[C@@]2(C)CC[C@@H]1OC(=O)C(C)C (stereo partly shown) [PRD056, reference compound]",≥ 9 h,>9 h,> 10 nM,,− (0.1≦specific activity<1),
"CC(=O)O[C@H]1CC[C@@]2(C)C(C[C@H](OC(=O)c3ccc(C#N)cc3)[C@@]3(C)Oc4cc(-c5cccnc5)oc(=O)c4[C@H](O)C23)C1(C)C(=O)O (stereo partly shown) [PRD069, 7-O-p-cyanobenzoyl-11-deacetoxymethyl-7-deacetyl-11-carboxy-pyripyropene A]",≥ 9 h,>9 h,,,++++ (20<specific activity),< 0.5 nM
"COC(=O)C1(C)C2C[C@H](OC(=O)c3ccc(C#N)cc3)[C@@]3(C)Oc4cc(-c5cccnc5)oc(=O)c4[C@H](O)C3[C@@]2(C)CC[C@@H]1OC(C)=O (stereo partly shown) [PRD070, 7-O-p-cyanobenzoyl-11-deacetoxymethyl-7-deacetyl-11-methoxy-carbonylpyripyropene A]",> 9 h,,,,+++ (10<specific activity≦20),0.5 to 1 nM
"COc1ccc(CNC(=O)C2(C)C3C[C@H](OC(=O)c4ccc(C#N)cc4)[C@@]4(C)Oc5cc(-c6cccnc6)oc(=O)c5[C@H](O)C4[C@@]3(C)CC[C@@H]2OC(C)=O)c(OC)c1 (stereo partly shown) [PRD071, 7-O-p-cyanobenzoyl-11-deacetoxymethyl-7-deacetyl-11-(2,4-dimethoxybenzylamino)carbonylpyripyropene A]",≥ 9 h,>9 h,,,++++ (20<specific activity),< 0.5 nM
